In general, IC50 refers to the concentration at which inhibition is half-maximal.

The target of the assay is T1, glutaminase (brain membranes) (Rattus norvegicus, UniProt P13264).
T1 construct: Membranes are prepared by homogenization of brain tissue in 330 mM sucrose; from tissue; host or cells: rat brain, crude membranes (17000 G pellet)
T1 sequence (P13264 73-674 limits assumed): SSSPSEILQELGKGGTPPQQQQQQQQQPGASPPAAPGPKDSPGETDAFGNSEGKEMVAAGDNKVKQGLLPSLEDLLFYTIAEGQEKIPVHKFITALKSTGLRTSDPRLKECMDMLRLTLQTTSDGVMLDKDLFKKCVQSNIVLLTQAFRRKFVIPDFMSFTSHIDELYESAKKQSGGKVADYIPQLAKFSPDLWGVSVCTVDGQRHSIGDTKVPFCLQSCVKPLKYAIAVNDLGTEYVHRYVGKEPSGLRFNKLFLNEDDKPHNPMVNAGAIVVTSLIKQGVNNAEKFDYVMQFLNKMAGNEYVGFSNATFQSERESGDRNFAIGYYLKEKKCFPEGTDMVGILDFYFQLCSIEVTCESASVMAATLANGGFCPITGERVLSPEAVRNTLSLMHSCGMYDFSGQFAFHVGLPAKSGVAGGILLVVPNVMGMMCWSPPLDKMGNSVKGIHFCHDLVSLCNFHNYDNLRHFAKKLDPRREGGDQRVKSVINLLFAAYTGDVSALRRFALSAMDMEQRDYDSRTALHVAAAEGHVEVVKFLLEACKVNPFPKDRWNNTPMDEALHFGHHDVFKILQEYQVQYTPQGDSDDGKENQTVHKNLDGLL
The assay can be described thus: biochemical. On the set-up: Glutaminase Activity: unit not given here. Conditions: for Glutaminase Activity: brain membranes.

Where [1] appears, read: read-out: glutaminase activity, phosphate-containing compounds.

Values joined by “and” are separate entries in the source; they are usually repeats but may differ in a detail not shown here. Equal entries are not always repeated. Where two headings read alike, the source gives them in different places. Non-standard residues stand in square brackets, D forms with d. Residues, ends and D or L forms follow the SMILES beside them. pGlu = O=C1CC[C@@H](C(=O)O)N1

Turning to `N[C@@H](Cc1c[nH]c2ccccc12)C(=O)N[C@@H](CCC(=O)O)C(=O)O` [Trp--Glu] (H-Trp-Glu-OH), under “read-out: Glutaminase Activity”, the activity at 3300 µM was found to be 99% and the activity at 9000 µM amounted to 86%.

Turning to `C=CCCCCCCCCCC(C(=O)O)C(=O)O` [2-undec-10-enyl malonate], the “Glutaminase Activity” value (100 µM) is listed as 89 ± 6. The “Glutaminase Activity” value (300 µM) is on record as 87 ± 2. For the setting “read-out: Glutaminase Activity”, the activity at 100 µM is 96 ± 7% and the activity at 300 µM stood at 67 ± 2%.

On to `CC(CC(N)C(=O)O)C(=O)O` (racemic) [(±)-threo-4-methylglutamate], for which, where the note is “read-out: Glutaminase Activity”, the activity at 3300 µM came out at 170% and the activity at 9000 µM is 100%.

As to `COC(=O)CC[C@H](N)C(=O)O` [L-glutamate-5-methyl ester], for the setting “read-out: Glutaminase Activity”, the activity at 3300 µM is 105 ± 7% and the activity at 9000 µM stood at 113%.

Consider `C[C@@H](CC(=O)O)[C@H](N)C(=O)O` (relative stereo) [(±)-erythro-3-methylglutamate], for which the “glutaminase inhibition (in words)” value is “moderate inhibition”. For the same compound, where the note is “read-out: Glutaminase Activity”, the activity at 3300 µM amounted to 34% and the activity at 9000 µM turned out to be 18%.

`NCC(=O)N[C@@H](CCC(=O)O)C(=O)O` [Gly--Glu] (H-Gly-Glu-OH): where the note is “read-out: Glutaminase Activity”, the activity at 3300 µM worked out at 94% and the activity at 9000 µM came out at 102%.

Regarding `CCOP(=O)(OCC)c1ccc(P(=O)(OCC)OCC)s1` [2,5-bis(diethoxyphosphoryl) thiophene], under setting [1], the activity at 3000 µM fell in the range of 75 to 90% and the activity at 9000 µM was in the range of 70 to 85%.

As to `N[C@@H](CC(=O)O)C(=O)N[C@@H](CCC(=O)O)C(=O)O` [Asp--Glu] (H-Asp-Glu-OH), the “glutaminase inhibition (in words)” value is recorded as “moderate inhibition”. Besides, for the setting “read-out: Glutaminase Activity”, the activity at 3300 µM is 77% and the activity at 9000 µM came to 32%.

Consider `CC(C)(C)OC(=O)NCC(=O)NC(CC(F)C(=O)O)C(=O)O` (stereo not drawn) [BOC-glycyl-4-fluoroglutamate], for which, under “read-out: Glutaminase Activity”, the activity at 3300 µM stood at 52% and the activity at 9000 µM is 15%.

Consider `CC(=O)NC(CCC(=O)O)C(=O)O` (racemic) [N-acetyl-DL-glutamate], for which, for the setting “read-out: Glutaminase Activity”, the activity at 3300 µM came to 92 ± 10% and the activity at 9000 µM was 75 ± 10%.

As to `NC(CC(C(=O)O)C(=O)O)C(=O)O` (stereo not drawn) [γ-carboxy glutamate], where the note is “read-out: Glutaminase Activity”, the activity at 3300 µM was found to be 100% and the activity at 9000 µM is 104%.

Turning to `CC(N)(CCC(=O)O)C(=O)O` (racemic) [α-methyl-DL-glutamate], the activity at 3300 µM (read-out: Glutaminase Activity) was determined as 76%.

In the case of `CC(C)(C)OC(=O)N[C@@H](CCC(=O)O)C(=O)O` [BOC--Glu--OH], for the setting “read-out: Glutaminase Activity”, the activity at 3300 µM was 101% and the activity at 9000 µM stood at 100%.

For the compound `N[C@@H](CCC(=O)O)C(=O)N[C@@H](CCC(=O)O)C(=O)O` [Glu--Glu] (H-Glu-Glu-OH), under “read-out: Glutaminase Activity”, the activity at 3300 µM worked out at 130% and the activity at 9000 µM was 141%.

For `CC[C@](N)(CCC(=O)O)C(=O)O` [(2S)-α-ethyl glutamic acid], the activity at 3300 µM (read-out: Glutaminase Activity) amounted to 95%.

As to `CC(C)[C@H](NC(=O)[C@@H](N)CCC(=O)O)C(=O)O` [Glu--Val] (H-Glu-Val-OH), under “read-out: Glutaminase Activity”, the activity at 3300 µM worked out at 122% and the activity at 9000 µM was determined as 116%.

In the case of `C[C@@H](O)[C@H](NC(=O)[C@@H](N)CCC(=O)O)C(=O)O` [Glu--Thr] (H-Glu-Thr-OH), where the note is “read-out: Glutaminase Activity”, the activity at 3300 µM turned out to be 124% and the activity at 9000 µM turned out to be 123%.

In the case of `CC(=O)N[C@@H](CC(=O)O)C(=O)N[C@@H](CCC(=O)O)C(=O)O` [N-acetyl Asp--Glu] (Ac-Asp-Glu-OH), the “glutaminase inhibition (in words)” value is “moderate inhibition”. For the same compound, the activity at 3300 µM (read-out: Glutaminase Activity) was 83%.

For the compound `N=CN[C@@H](CCC(=O)O)C(=O)O` [N-formamino-Glu], for the setting “read-out: Glutaminase Activity”, the activity at 3300 µM was determined as 89% and the activity at 9000 µM came to 127%.

`N[C@@H](CCC(=O)O)C(=O)NCC(=O)O` [Glu--Gly] (H-Glu-Gly-OH): for the setting “read-out: Glutaminase Activity”, the activity at 3300 µM came out at 94% and the activity at 9000 µM is 95%.

Regarding `N[C@@H](CCC(=O)NCC(=O)O)C(=O)O` [γ-Glu--Gly], the activity at 3300 µM (read-out: Glutaminase Activity) was found to be 90 ± 13%.

Turning to `Cc1ncc(COP(=O)(O)O)c(C=O)c1O` [pyridoxal 5-phosphate], under setting [1], the activity at 3000 µM lay within 75 to 90% and the activity at 9000 µM fell in the range of 70 to 85%.

Take `C[C@H](N)C(=O)N[C@@H](CCC(=O)O)C(=O)O` [Ala--Glu] (H-Ala-Glu-OH): where the note is “read-out: Glutaminase Activity”, the activity at 3300 µM is 117% and the activity at 9000 µM worked out at 115%.

With `NC(=O)[C@@H](N)CCC(=O)O` [L-glutamide], under “read-out: Glutaminase Activity”, the activity at 3300 µM is 99% and the activity at 9000 µM is 96%.

Regarding `CCOC(=O)CC[C@H](N)C(=O)O` [L-glutamate-5-ethyl ester], where the note is “read-out: Glutaminase Activity”, the activity at 3300 µM was found to be 98% and the activity at 9000 µM came out at 92%.

For `N[C@@H](CO)C(=O)N[C@@H](CCC(=O)O)C(=O)O` [Ser--Glu] (H-Ser-Glu-OH), under “read-out: Glutaminase Activity”, the activity at 3300 µM was found to be 104% and the activity at 9000 µM is 88%.

Turning to `CSCC[C@H](N)C(=O)N[C@@H](CCC(=O)O)C(=O)O` [Met--Glu] (H-Met-Glu-OH), under “read-out: Glutaminase Activity”, the activity at 3300 µM is 111% and the activity at 9000 µM turned out to be 98%.

`O=C(O)C(CC=C1c2ccccc2C=Cc2ccccc21)C(=O)O` [2-(2-dibenzo(a,d)cyclohepten-5-ylidene)-ethyl malonic acid]: the “dependence of glutaminase inhibition on phosphate level and concentration (in words)” value is reported as “inhibition was reduced in the presence of high phosphate levels; the effect was particularly evident”. Further, the “Glutaminase Activity” value (300 µM) was 83 ± 7. Further, the “Glutaminase Activity” value (1000 µM) worked out at 61 ± 4. For the same compound, where the note is “read-out: Glutaminase Activity”, the activity at 100 µM came to 86 ± 10%, the activity at 300 µM came out at 75 ± 5% and the activity at 1000 µM worked out at 44 ± 2%.

`N[C@@H](Cc1ccc(O)cc1)C(=O)N[C@@H](CCC(=O)O)C(=O)O` [Tyr--Glu] (H-Tyr-Glu-OH): for the setting “read-out: Glutaminase Activity”, the activity at 3300 µM stood at 110% and the activity at 9000 µM came out at 118%.

On to `C[C@H](CC(=O)O)[C@H](N)C(=O)O` (relative stereo) [(±)-threo-3-methylglutamate], for which, where the note is “read-out: Glutaminase Activity”, the activity at 3300 µM came to 91% and the activity at 9000 µM was 7%.

Take `C[C@H](NC(=O)[C@@H]1CCC(=O)N1)C(=O)N[C@@H](CCC(=O)O)C(=O)O` [pyro-Glu--Ala--Glu] ([pGlu]-Ala-Glu-OH): for the setting “read-out: Glutaminase Activity”, the activity at 3300 µM was 95% and the activity at 9000 µM is 76%.

Regarding `NC(CC(=O)O)CC(=O)O` [β-glutamic acid], the “Glutaminase Activity” value (9000 µM) was 73 and 83 and 94. For the setting “read-out: Glutaminase Activity”, the activity at 3300 µM came out at 84%.

For the compound `N=C(N)NCCC[C@H](N)C(=O)N[C@@H](CCC(=O)O)C(=O)O` [Arg--Glu] (H-Arg-Glu-OH), under “read-out: Glutaminase Activity”, the activity at 3300 µM came to 123% and the activity at 9000 µM was 118%.

As for `CC(C)OP(=O)(CCP(=O)(OC(C)C)OC(C)C)OC(C)C` [tetraisopropyl ethylene diphosphonate], under setting [1], the activity at 3000 µM lay within 75 to 90% and the activity at 9000 µM is 70 to 85%.

Take `NCCCC[C@H](NC(=O)[C@@H](N)CCC(=O)O)C(=O)O` [Glu--Lys] (H-Glu-Lys-OH): where the note is “read-out: Glutaminase Activity”, the activity at 3300 µM was 96% and the activity at 9000 µM worked out at 93%.

As to `N[C@@H](CC(F)C(=O)O)C(=O)O` (stereo partly drawn) [4-fluoroglutamic acid], the concentration for half-maximal inhibition (IC50) stood at 500 µM. Under “read-out: Glutaminase Activity”, the activity at 330 µM was determined as 67 ± 7%, the activity at 1000 µM came out at 30 ± 9% and the activity at 3300 µM was 4.2 ± 1.3%.

Consider `NC(CC(N)C(=O)O)C(=O)O` (stereo not drawn) [2,4-diaminopentanedioic acid], for which, under “read-out: Glutaminase Activity”, the activity at 3300 µM is 82 ± 7% and the activity at 9000 µM turned out to be 103 ± 25%.
